Reference: ChEMBL document CHEMBL2439993, “Cynaropicrin targets the trypanothione redox system in Trypanosoma brucei” (Bioorg Med Chem, 2013)
The source made the active and inactive calls. The calls are words filed in the database; no cut-off is given here.

How the values were obtained:
[1] = test system: Trypanosoma brucei rhodesiense; assay: Inhibition of ornithine decarboxylase in Trypanosoma brucei rhodesiense STIB900 assessed as intracellular ornithine level at 50 uM after 20 mins (reference value: 4 +/- 1 uM); assay type: cell-based
[2] = Induction of T(SH)2-CYN adduct formation by HPLC-MS analysis; assay type: physicochemical
[3] = test system: Trypanosoma brucei rhodesiense; assay: Reduction of GSH level in Trypanosoma brucei rhodesiense at 50 uM after 40 mins by UHPLC-MS/MS analysis; assay type: functional, organism-based
[4] = test system: Trypanosoma brucei rhodesiense; assay: Induction of CYN-thiol adduct formation in Trypanosoma brucei rhodesiense assessed as GS-CYN monoadduct level at 50 uM after 5 mins by UHPLC-MS/MS analysis; assay type: organism-based; settings: in vivo
[5] = test system: Trypanosoma brucei rhodesiense; assay: Induction of CYN-thiol adduct formation in Trypanosoma brucei rhodesiense assessed as intracellular CYN level at 50 uM after 5 mins by UHPLC-MS/MS analysis; assay type: organism-based; settings: in vivo
[6] = test system: Trypanosoma brucei rhodesiense; assay: Induction of CYN-thiol adduct formation in Trypanosoma brucei rhodesiense assessed as T(S-CYN)2 bisadduct level at 50 uM after 5 mins by UHPLC-MS/MS analysis; assay type: organism-based; settings: in vivo
[7] = test system: Trypanosoma brucei rhodesiense; assay: Reduction of T(SH)2 level in Trypanosoma brucei rhodesiense at 50 uM after 40 mins by UHPLC-MS/MS analysis; assay type: functional, organism-based
Trypanosoma brucei [8] = assay: Inhibition of trypanothione synthatase in Trypanosoma brucei using GSH as substrate at 200 uM
[9] = test system: Trypanosoma brucei rhodesiense; assay: Induction of CYN-thiol adduct formation in Trypanosoma brucei rhodesiense assessed as extracellular CYN level at 50 uM after 5 mins by UHPLC-MS/MS analysis; assay type: organism-based; settings: in vivo
Trypanosoma brucei [10] = assay: Antitrypanosomal activity against Trypanosoma brucei assessed as intermediate phenotype at 50 uM after 5 to 10 mins by Giemsa staining-based light microscopy; assay type: functional, organism-based
[11] = test system: Trypanosoma brucei rhodesiense; assay: Induction of CYN-thiol adduct formation in Trypanosoma brucei rhodesiense assessed as extracellular CYN level at 50 uM after 30 mins by UHPLC-MS/MS analysis; assay type: organism-based; settings: in vivo, 0.5 h
Trypanosoma cruzi = assay: Inhibition of trypanothione reductase in Trypanosoma cruzi using T(S)2 as substrate at 100 to 200 uM after 240 mins by spectrophotometry in presence of NADPH
[12] = test system: Trypanosoma brucei rhodesiense; assay: Induction of CYN-thiol adduct formation in Trypanosoma brucei rhodesiense assessed as extracellular CYN level at 50 uM after 20 mins by UHPLC-MS/MS analysis; assay type: organism-based; settings: in vivo
[13] = test system: Trypanosoma brucei rhodesiense; assay: Induction of CYN-thiol adduct formation in Trypanosoma brucei rhodesiense assessed as extracellular CYN level at 50 uM after 10 mins by UHPLC-MS/MS analysis; assay type: organism-based; settings: in vivo
Trypanosoma brucei [14] = assay: Antitrypanosomal activity against Trypanosoma brucei assessed as stumpy phenotype at 50 uM after 40 mins by Giemsa staining-based light microscopy; assay type: functional, organism-based
Trypanosoma brucei [15] = assay: Irreversible inhibition of trypanothione synthatase in Trypanosoma brucei using GSH as substrate at 200 uM after 240 mins
[16] = Induction of GS-CYN monoadduct formation by HPLC-MS analysis; assay type: physicochemical
[17] = test system: Trypanosoma brucei rhodesiense; assay: Induction of CYN-thiol adduct formation in Trypanosoma brucei rhodesiense assessed as extracellular CYN level at 50 uM after 40 mins by UHPLC-MS/MS analysis; assay type: organism-based; settings: in vivo

| Structure (SMILES) | INH [1] [µM] | Activity [2] | Activity [3] | Activity [4] [µM] | Activity [5] [µM] | Activity [6] [µM] | Activity [7] | inhibition (Trypanosoma brucei [8]) | Activity [9] [µM] | Activity (Trypanosoma brucei [10]) | Activity [11] [µM] | inhibition (Trypanosoma cruzi) | Activity [12] [µM] | Activity [13] [µM] | Activity (Trypanosoma brucei [14]) | inhibition (Trypanosoma brucei [15]) [%] | Activity [16] | Activity [17] [µM] |
| --- | --- | --- | --- | --- | --- | --- | --- | --- | --- | --- | --- | --- | --- | --- | --- | --- | --- | --- |
| NCCCC(N)(C(=O)O)C(F)F (centres undefined) | 48 |  |  |  |  |  |  |  |  |  |  |  |  |  |  |  |  |  |
| C=C(CO)C(=O)O[C@H]1CC(=C)[C@@H]2C[C@H](O)C(=C)[C@@H]2[C@H]2OC(=O)C(=C)[C@@H]21 [CYNAROPICRIN] | 50 | Active | Active | 42 | 23 | 49 | Active | inactive | 34.9 | Active | 33.3 | inactive | 35.8 | 39.6 | Active | 51 | Active | 37.1 |
